Data as given in ChEMBL document CHEMBL1201862, “PubChem BioAssay data set” (2004).
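Protocol summary: plate cells (96-well), add compound at 5 concentrations, incubate 48 h, interpolate endpoints linearly. The concentration for 50% growth inhibition is given as GI50.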 Activity calls are given as the source filed them. Cut-off read from the data, not from the text of the source: active = GI50 up to about 1.1 µM and inactive = higher.

Columns and labels:
Assay in all cases: NCI tumour cell line growth inhibition, 48 h
786-0 = test system: 786-0
A549 = test system: A549
CCRF-CEM = test system: CCRF-CEM
HCC 2998 = test system: HCC 2998
HCT-116 = test system: HCT-116
HOP-62 = test system: HOP-62
IGROV-1 = test system: IGROV-1
Malme-3M = test system: Malme-3M
NCI-H460 = test system: NCI-H460
NCI-H522 = test system: NCI-H522
SF-268 = test system: SF-268
SN12C = test system: SN12C
SNB-19 = test system: SNB-19
UO-31 = test system: UO-31
OVCAR-4 = test system: OVCAR-4

Measured: GI50

CC1=N/C(=C\c2cccc([N+](=O)[O-])c2)C(=O)O1
inactive: 786-0 > 100 µM | A549 > 100 µM | CCRF-CEM > 100 µM | HCC 2998 > 100 µM | HCT-116 > 100 µM | HOP-62 > 100 µM | IGROV-1 > 100 µM | Malme-3M > 100 µM | NCI-H460 > 100 µM | NCI-H522 > 100 µM | SF-268 > 100 µM | SN12C > 100 µM | SNB-19 > 100 µM | UO-31 > 100 µM

Cc1c2n(c3ccccc13)CC1C2N(C)OC1(C)C (stereo not given)
inactive: 786-0 > 100 µM | A549 > 100 µM | CCRF-CEM > 100 µM | HCC 2998 > 100 µM | HCT-116 > 100 µM | HOP-62 83.8 µM | Malme-3M > 100 µM | NCI-H460 > 100 µM | NCI-H522 > 100 µM | OVCAR-4 > 100 µM | SF-268 > 100 µM | SN12C > 100 µM | SNB-19 > 100 µM | UO-31 86.7 µM

COc1cc(C(N)=O)c(OC)c(OC)c1OC
inactive: 786-0 > 100 µM | A549 > 100 µM | CCRF-CEM > 100 µM | HCC 2998 > 100 µM | HCT-116 > 100 µM | HOP-62 > 100 µM | IGROV-1 > 100 µM | NCI-H460 > 100 µM | NCI-H522 > 100 µM | OVCAR-4 > 100 µM | SF-268 > 100 µM | SN12C > 100 µM | SNB-19 > 100 µM | UO-31 > 100 µM

Cc1cc(C)nc(Sc2c([N+](=O)[O-])ncn2C)n1
inactive: 786-0 > 100 µM | A549 > 100 µM | CCRF-CEM 56.9 µM | HCC 2998 > 100 µM | HCT-116 > 100 µM | HOP-62 > 100 µM | IGROV-1 > 100 µM | Malme-3M 94.6 µM | NCI-H460 > 100 µM | NCI-H522 > 100 µM | OVCAR-4 > 100 µM | SF-268 > 100 µM | SN12C > 100 µM | SNB-19 > 100 µM | UO-31 > 100 µM

COC1C2C=CC(C2)[C@H]1[N+](=O)[O-] (stereo not given in full)
inactive: 786-0 > 100 µM | A549 > 100 µM | CCRF-CEM 74.1 µM | HCC 2998 > 100 µM | HCT-116 > 100 µM | HOP-62 > 100 µM | IGROV-1 > 100 µM | Malme-3M > 100 µM | NCI-H460 > 100 µM | NCI-H522 > 100 µM | OVCAR-4 > 100 µM | SF-268 > 100 µM | SN12C > 100 µM | SNB-19 > 100 µM | UO-31 > 100 µM

CC(=O)CCn1ncc(Cl)c(Cl)c1=O
inactive: 786-0 20.5 µM | A549 23 µM | CCRF-CEM 21.9 µM | HCC 2998 9.51 µM | HCT-116 14.5 µM | HOP-62 19.7 µM | IGROV-1 18.7 µM | Malme-3M 20.7 µM | NCI-H460 20.2 µM | OVCAR-4 9.95 µM | SF-268 12.1 µM | SN12C 14.3 µM | SNB-19 18 µM | UO-31 20 µM

CCC1C(=O)OCc2c1cc1n(c2=O)CCC12OCCO2 (stereo not given)
inactive: 786-0 > 100 µM | A549 > 100 µM | CCRF-CEM > 100 µM | HCC 2998 63.8 µM | HCT-116 > 100 µM | HOP-62 > 100 µM | IGROV-1 > 100 µM | NCI-H460 > 100 µM | NCI-H522 > 100 µM | OVCAR-4 > 100 µM | SF-268 > 100 µM | SN12C > 100 µM | SNB-19 > 100 µM | UO-31 > 100 µM

Nc1c(S(=O)(=O)c2ccc(Cl)cc2)c2nc3ccccc3nc2n2ccnc12
inactive: 786-0 36.2 µM | A549 85.9 µM | CCRF-CEM 39.4 µM | HCC 2998 > 100 µM | HCT-116 44.3 µM | IGROV-1 98.6 µM | Malme-3M > 100 µM | NCI-H460 63.4 µM | NCI-H522 53.7 µM | OVCAR-4 14.5 µM | SF-268 43.1 µM | SN12C > 100 µM | SNB-19 48.5 µM | UO-31 > 100 µM

[O-][S+]1c2ccccc2N=C(c2ccc3ccccc3c2)CC1c1ccccc1F (stereo not given)
inactive: 786-0 > 100 µM | A549 > 100 µM | CCRF-CEM 67.8 µM | HCC 2998 > 100 µM | HOP-62 > 100 µM | IGROV-1 > 100 µM | Malme-3M > 100 µM | NCI-H460 > 100 µM | NCI-H522 72.3 µM | OVCAR-4 > 100 µM | SF-268 > 100 µM | SN12C > 100 µM | SNB-19 > 100 µM | UO-31 > 100 µM

O=S1(=O)c2ccccc2N(O)C2=NCCN21
inactive: 786-0 > 100 µM | A549 > 100 µM | CCRF-CEM > 100 µM | HCC 2998 > 100 µM | HCT-116 > 100 µM | HOP-62 > 100 µM | IGROV-1 > 100 µM | Malme-3M > 100 µM | NCI-H460 > 100 µM | NCI-H522 > 100 µM | SF-268 > 100 µM | SN12C > 100 µM | SNB-19 > 100 µM | UO-31 > 100 µM

COC(=O)N/N=C(\C)CC(=O)Nc1cccc([N+](=O)[O-])c1
inactive: 786-0 > 100 µM | A549 > 100 µM | CCRF-CEM > 100 µM | HCC 2998 > 100 µM | HCT-116 > 100 µM | HOP-62 > 100 µM | IGROV-1 > 100 µM | Malme-3M > 100 µM | NCI-H460 > 100 µM | NCI-H522 > 100 µM | SF-268 > 100 µM | UO-31 > 100 µM

CN(C)CC1CCCC/C1=N/O (stereo not given)
inactive: 786-0 > 100 µM | A549 > 100 µM | CCRF-CEM > 100 µM | HCC 2998 > 100 µM | HCT-116 > 100 µM | HOP-62 > 100 µM | IGROV-1 > 100 µM | Malme-3M > 100 µM | NCI-H460 > 100 µM | NCI-H522 > 100 µM | OVCAR-4 > 100 µM | SF-268 > 100 µM | SN12C > 100 µM | UO-31 > 100 µM

CC1OC(OC2C(OC(=O)[C@]34CCC(C)(C)CC3C3=CCC5[C@@]6(C)C[C@H](O)[C@H](OC7OC(COC8OC(CO)C(O)C(O)C8O)C(O)C(O)C7O)[C@@](C)(C(=O)O)C6CC[C@@]5(C)C3(C)CC4)OCC(O)C2O)C(O)C(O)C1OC1OCC(O)C(O)C1O (stereo not given in full)
inactive: 786-0 > 100 µM | A549 > 100 µM | CCRF-CEM > 100 µM | HCC 2998 > 100 µM | HOP-62 > 100 µM | IGROV-1 > 100 µM | Malme-3M > 100 µM | NCI-H460 > 100 µM | NCI-H522 > 100 µM | SF-268 > 100 µM | SN12C > 100 µM | SNB-19 > 100 µM | UO-31 > 100 µM

O=[N+]([O-])c1ccc(NSc2ccccc2)cc1
inactive: 786-0 16.4 µM | A549 29 µM | CCRF-CEM 3.03 µM | HCC 2998 50.6 µM | HCT-116 25.2 µM | HOP-62 33.3 µM | IGROV-1 10.7 µM | Malme-3M > 100 µM | NCI-H460 18.3 µM | NCI-H522 17.2 µM | SF-268 28.2 µM | SN12C 17.2 µM | SNB-19 70.3 µM | UO-31 26.8 µM
